In general, EC50 refers to the concentration needed to bring the measured effect to its halfway point.

Structures can show the parent of a compound that is named as a salt.

For this assay, the target named is T1, hGPR40 (Homo sapiens, UniProt O14842).
T1 construct: 3xFLAG; expressed in transfected cells
T1 sequence (O14842 whole entry): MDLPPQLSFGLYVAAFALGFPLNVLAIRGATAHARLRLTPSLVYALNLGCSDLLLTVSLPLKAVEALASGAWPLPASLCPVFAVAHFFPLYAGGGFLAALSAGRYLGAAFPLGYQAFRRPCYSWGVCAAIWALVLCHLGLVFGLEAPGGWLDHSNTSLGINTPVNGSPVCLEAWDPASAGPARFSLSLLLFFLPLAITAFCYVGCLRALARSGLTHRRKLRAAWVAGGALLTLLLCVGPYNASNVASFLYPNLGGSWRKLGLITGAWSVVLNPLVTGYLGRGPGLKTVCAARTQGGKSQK
As to the kind of experiment: FDSS-Based Intracellular Calcium Assay (Human GRP40 In Vitro assay). The settings on record: cell lines expressing GPR40, intracellular Ca2+ response, FDSS reader. On the procedure: FDSS-Based Intracellular Calcium Assay
Cell lines expressing GPR40 are generated using the pDEST 3xflag gene expression system and are cultured in culture medium comprising the following components: F12 (Gibco #11765), 10% lipid deprived fetal bovine serum, 250 ug/ml zeocin and 500 ug/ml G418. To conduct the fluorescent imaging plate reader (FLIPR)-based calcium flux assay to measure intracellular Ca^2+ response, cells expressing GPR40 are plated on 384 well plates (BD Biocoat #356697) at a density of 20,000 cells/20 ul medium per well in phenol red and serum-free DMEM (Gibco #21063-029) and incubated overnight. Using BD kit #s 80500-310 or -301, the cells are incubated with 20 ul per well of Hank's buffered salt solution with 1.7 mM probenecid and Fluo-3 at 37° C. for 30 minutes. Compounds are dissolved in DMSO and diluted to desired concentrations with assay buffer and added to the cells as 3× solution (20 ul per well). Run fluorescence/luminescence reader FDSS (Hamamatsu) to read intracellular Ca^2+ response.
Table 1 below lists hGPR40 EC50 values measured for the following examples.
`Cc1ccccc1Oc1ccc(N2CCC[C@H]2CC(=O)O)cc1F` [Example 1, (S)-2-(1-(3-fluoro-4-(o-tolyloxy)phenyl)pyrrolidin-2-yl)acetic acid, TFA]: the EC50 turned out to be 1630 nM.

For `Cc1cccc(C)c1Oc1ccc(N2CCC[C@@H]2CC(=O)O)cc1` [Example 4, (R)-2-(1-(4-(2,6-dimethylphenoxy)phenyl)pyrrolidin-2-yl)acetic acid, HCl], the EC50 amounted to 3800 nM.

Take `Cc1ccccc1Oc1ccc(N2CCC[C@H]2CC(=O)O)cc1` [Example 5, (S)-2-(1-(4-(o-tolyloxy)phenyl)pyrrolidin-2-yl)acetic acid, HCl]: the EC50 was 65 nM.

`Cc1ccccc1Cc1ccc(N2C[C@@H](C(F)(F)F)C[C@H]2CC(=O)O)cc1` [Example 40, 2-((2S,4S)-1-(4-(2-methylbenzyl)phenyl)-4-(trifluoromethyl)pyrrolidin-2-yl)acetic acid, TFA]: the EC50 is 61 nM.

As for `Cc1ccccc1Oc1ccc(N2C[C@@H](C(F)(F)F)C[C@H]2CC(=O)O)cc1` [Example 41, 2-((2S,4S)-1-(4-(o-tolyloxy)phenyl)-4-(trifluoromethyl)pyrrolidin-2-yl)acetic acid, TFA], the EC50 turned out to be 56 nM.

Consider `Cc1ccccc1Sc1ccc(N2CCC[C@H]2CC(=O)O)cc1` [Example 44, (S)-2-(1-(4-(o-tolylthio)phenyl)pyrrolidin-2-yl)acetic acid, TFA], for which the EC50 amounted to 352 nM.

On to `COc1ccc(Oc2ccc(N3C[C@@H](C(F)(F)F)C[C@H]3CC(=O)O)cc2)c(C)c1` [Example 50, 2-((2S,4S)-1-(4-(4-methoxy-2-methylphenoxy)phenyl)-4-(trifluoromethyl)pyrrolidin-2-yl)acetic acid, TFA], for which the EC50 came out at 55 nM.

On to `O=C(O)C[C@@H]1C[C@H](C(F)(F)F)CN1c1ccc(Oc2ccccc2C(F)(F)F)cc1` [Example 52, 2-((2S,4S)-4-(trifluoromethyl)-1-(4-(2-(trifluoromethyl)phenoxy)phenyl)pyrrolidin-2-yl)acetic acid, TFA], for which the EC50 worked out at 305 nM.

For `CO[C@H]1C[C@@H](CC(=O)O)N(c2ccc(Oc3ccccc3C)cc2)C1` [Example 56, 2-((2S,4S)-4-methoxy-1-(4-(o-tolyloxy)phenyl)pyrrolidin-2-yl)acetic acid, TFA], the EC50 was found to be 2320 nM.

Take `O=C(O)C[C@@H]1CCCN1c1ccc(Cc2ccc(OCc3ccccc3)cc2)cc1` [Example 58, (S)-2-(1-(4-(4-(benzyloxy)benzyl)phenyl)pyrrolidin-2-yl)acetic acid, TFA]: the EC50 was 331 nM.

Consider `COc1ccc(F)c(-c2cccc(Oc3ccc(N4CCC[C@H]4CC(=O)O)cc3)c2C)c1` [Example 68, 2-((2S)-1-(4-(2′-fluoro-5′-methoxy-2-methylbiphenyl-3-yloxy)phenyl)pyrrolidin-2-yl)acetic acid, TFA], for which the EC50 came out at 314 nM.

For `Cc1ccccc1COc1cc(N2CCC[C@H]2CC(=O)O)ccn1` [Example 76, (S)-2-(1-(2-(2-methylbenzyloxy)pyridin-4-yl)pyrrolidin-2-yl)acetic acid, TFA], the EC50 worked out at 4390 nM.

As to `Cc1ccc(COc2ccc(N3CCC[C@@H]3CC(=O)O)cc2)cc1` [Example 109], the 50% effective concentration (EC50) came to 4340 nM.

Values taken from patent US8288404B2, “Pyrrolidine GPR40 modulators” (Bristol-Myers Squibb Company, priority 2009, dated 2012).
